This is an account of results in BindingDB's records for doi:10.1016/j.bmcl.2004.10.029 (Glaxosmithkline, 2005).

For orientation: Ki means a dissociation constant, usually derived from enzyme kinetics or from competition with a known ligand. Low values mean a stronger hold on the target, high ones a looser hold on the target. One may read the IC50 as the concentration that gives 50% inhibition. Low values mean higher potency, high ones lower potency.

For experiment [1], the target named is T1, Dimer of Gag-Pol polyprotein [501-599,Q508K,L534I,L564I,C568A,C596A] (Human immunodeficiency virus 1, UniProt P03367, C568A/C596A/L534I/L564I/Q508K).
T1 construct: 501-599
Put plainly: Protease Inhibition Assay. The settings on record: pH 6.4; 25 °C. The method, then: The Ki values were determined using fluorogenic substrate, 2-(aminobenzoyl)-Thr-Ile-Nle-Phe(p-NO2)-Gln-ArgNH2. A standard curve relating changes in fluorescent intensity to changes in concentration of product was used to convert fluorescent changes into molar velocities. The amount of cleavage was determined by HPLC.

Experiment [2] has as its target T1, Dimer of Gag-Pol polyprotein [501-599,Q508K,L534I,L564I,C568A,C596A]. Put plainly: Protease Inhibition Assay. The settings on record: pH 6.4; 25 °C. This is another data set of the same source.

In turn, `CN1CCN(C(=O)COc2ccc(C[C@H](C[C@H](O)CN3C(=O)[C@@H](Cc4ccccc4)C[C@@H]3Cc3ccccc3)C(=O)N[C@H]3c4ccccc4C[C@H]3O)cc2)CC1` [(2R,4S)-5-[(3S,5R)-3,5-dibenzyl-2-oxopyrrolidin-1-yl]-4-hydroxy-N-[(1S,2R)-2-hydroxy-2,3-dihydro-1H-inden-1-yl]-2-({4-[2-(4-methylpiperazin-1-yl)-2-oxoethoxy]phenyl}methyl)pentanamide] gave a Ki in experiment [1] of 0.05 nM. In experiment [2], this molecule yielded an IC50 of 130 nM.
In the same order, the values of `O=C(N[C@H]1c2ccccc2C[C@H]1O)[C@H](Cc1ccc(OCCOC(=O)N2CCOCC2)cc1)C[C@H](O)CN1C(=O)[C@@H](Cc2ccccc2)C[C@@H]1Cc1ccccc1` [2-{4-[(2R)-2-[(2S)-3-[(3S,5R)-3,5-dibenzyl-2-oxopyrrolidin-1-yl]-2-hydroxypropyl]-2-{[(1S,2R)-2-hydroxy-2,3-dihydro-1H-inden-1-yl]carbamoyl}ethyl]phenoxy}ethyl morpholine-4-carboxylate] are 0.05 nM and 240 nM.
The corresponding values for `O=C(N[C@H]1c2ccccc2C[C@H]1O)[C@H](Cc1ccc(OCc2ccccn2)cc1)C[C@H](O)CN1C(=O)[C@@H](Cc2ccccc2)C[C@@H]1Cc1ccccc1` [(2R,4S)-5-[(3S,5R)-3,5-dibenzyl-2-oxopyrrolidin-1-yl]-4-hydroxy-N-[(1S,2R)-2-hydroxy-2,3-dihydro-1H-inden-1-yl]-2-{[4-(pyridin-2-ylmethoxy)phenyl]methyl}pentanamide] are 0.07 nM and 380 nM.
In experiment [2], `O=C(N[C@H]1c2ccccc2C[C@H]1O)[C@H](Cc1ccccc1)C[C@H](O)CN1C(=O)[C@@H](Cc2ccccc2)C[C@@H]1Cc1ccc(O)cc1` [(2R,4S)-2-benzyl-5-[(3S,5R)-3-benzyl-5-[(4-hydroxyphenyl)methyl]-2-oxopyrrolidin-1-yl]-4-hydroxy-N-[(1S,2R)-2-hydroxy-2,3-dihydro-1H-inden-1-yl]pentanamide] had an IC50 of 200 nM.
With `O=C(N[C@H]1c2ccccc2C[C@H]1O)[C@H](Cc1ccc(O)cc1)C[C@H](O)CN1C(=O)[C@@H](Cc2ccccc2)C[C@@H]1Cc1ccccc1` [(2R,4S)-5-[(3S,5R)-3,5-dibenzyl-2-oxopyrrolidin-1-yl]-4-hydroxy-N-[(1S,2R)-2-hydroxy-2,3-dihydro-1H-inden-1-yl]-2-[(4-hydroxyphenyl)methyl]pentanamide], the Ki in experiment [1] amounted to 0.06 nM. The same molecule showed a half-inhibitory concentration (IC50) in experiment [2] of 320 nM.
In the same order, the values of `O=C(N[C@H]1c2ccccc2C[C@H]1O)[C@H](Cc1ccc(OCC(=O)N2CCOCC2)cc1)C[C@H](O)CN1C(=O)[C@@H](Cc2ccccc2)C[C@@H]1Cc1ccccc1` [(2R,4S)-5-[(3S,5R)-3,5-dibenzyl-2-oxopyrrolidin-1-yl]-4-hydroxy-N-[(1S,2R)-2-hydroxy-2,3-dihydro-1H-inden-1-yl]-2-({4-[2-(morpholin-4-yl)-2-oxoethoxy]phenyl}methyl)pentanamide] are 0.02 nM and 63 nM.
The molecule `O=C(N[C@H]1c2ccccc2C[C@H]1O)[C@H](Cc1ccc(Cc2ccccc2)cc1)C[C@H](O)CN1C(=O)[C@@H](Cc2ccccc2)C[C@@H]1Cc1ccccc1` [(2R,4S)-2-[(4-benzylphenyl)methyl]-5-[(3S,5R)-3,5-dibenzyl-2-oxopyrrolidin-1-yl]-4-hydroxy-N-[(1S,2R)-2-hydroxy-2,3-dihydro-1H-inden-1-yl]pentanamide] yielded a Ki in experiment [1] of 0.11 nM. In addition, in experiment [2], the concentration for half-maximal inhibition (IC50) is 920 nM.
The corresponding values for `O=C(N[C@H]1c2ccccc2C[C@H]1O)[C@H](Cc1ccc(OCCO)cc1)C[C@H](O)CN1C(=O)[C@@H](Cc2ccccc2)C[C@@H]1Cc1ccccc1` [(2R,4S)-5-[(3S,5R)-3,5-dibenzyl-2-oxopyrrolidin-1-yl]-4-hydroxy-N-[(1S,2R)-2-hydroxy-2,3-dihydro-1H-inden-1-yl]-2-{[4-(2-hydroxyethoxy)phenyl]methyl}pentanamide] are 0.02 nM and 94 nM.
In the same order, the values of `COCCOCCOc1ccc(C[C@H](C[C@H](O)CN2C(=O)[C@@H](Cc3ccccc3)C[C@@H]2Cc2ccccc2)C(=O)N[C@H]2c3ccccc3C[C@H]2O)cc1` [(2R,4S)-5-[(3S,5R)-3,5-dibenzyl-2-oxopyrrolidin-1-yl]-4-hydroxy-N-[(1S,2R)-2-hydroxy-2,3-dihydro-1H-inden-1-yl]-2-({4-[2-(2-methoxyethoxy)ethoxy]phenyl}methyl)pentanamide] are 0.02 nM and 93 nM.
Molecule `O=C(N[C@H]1c2ccccc2C[C@H]1O)[C@H](Cc1ccccc1)C[C@H](O)CN1C(=O)[C@@H](Cc2ccccc2)C[C@@H]1Cc1ccc(OCCO)cc1` [(2R,4S)-2-benzyl-5-[(3S,5R)-3-benzyl-5-{[4-(2-hydroxyethoxy)phenyl]methyl}-2-oxopyrrolidin-1-yl]-4-hydroxy-N-[(1S,2R)-2-hydroxy-2,3-dihydro-1H-inden-1-yl]pentanamide] had a Ki in experiment [1] of 0.3 nM. Also, half-maximal inhibition in experiment [2] (IC50) required 480 nM.
As to `O=C(N[C@H]1c2ccccc2C[C@H]1O)[C@H](Cc1ccccc1)C[C@H](O)CN1C(=O)[C@@H](Cc2ccccc2)C[C@@H]1Cc1ccc(OCC(=O)N2CCOCC2)cc1` [pyrrolidinone based inhibitor 1k], affinity in experiment [1] was put at a Ki of 0.1 nM. Besides, the IC50 in experiment [2] was found to be 200 nM.
With `O=C(N[C@H]1c2ccccc2C[C@H]1O)[C@H](Cc1ccccc1)C[C@H](O)CN1C(=O)[C@@H](Cc2ccccc2)C[C@@H]1Cc1ccccc1` [pyrrolidinone scaffold 8b], in experiment [2], the IC50 was 0.05 nM.
For the molecule `O=C(N[C@H]1c2ccccc2C[C@H]1O)[C@H](Cc1ccccc1)C[C@H](O)CN1C(=O)[C@@H](Cc2ccccc2)C[C@@H]1Cc1ccc(Cc2ccccc2)cc1` [(2R,4S)-2-benzyl-5-[(3S,5R)-3-benzyl-5-[(4-benzylphenyl)methyl]-2-oxopyrrolidin-1-yl]-4-hydroxy-N-[(1S,2R)-2-hydroxy-2,3-dihydro-1H-inden-1-yl]pentanamide], affinity in experiment [1] was put at a Ki of 0.13 nM. This molecule registered a 50% inhibitory concentration (IC50) in experiment [2] of 550 nM.
In the same order, the values of `O=C(N[C@H]1c2ccccc2C[C@H]1O)[C@H](Cc1ccccc1)C[C@H](O)CN1C(=O)[C@@H](Cc2ccccc2)C[C@@H]1Cc1ccc(OCCN2CCOCC2)cc1` [pyrrolidinone based inhibitor 1g] are 1.3 nM and 960 nM.
In experiment [1], `NC(=O)COc1ccc(C[C@H](C[C@H](O)CN2C(=O)[C@@H](Cc3ccccc3)C[C@@H]2Cc2ccccc2)C(=O)N[C@H]2c3ccccc3C[C@H]2O)cc1` [(2R,4S)-2-{[4-(carbamoylmethoxy)phenyl]methyl}-5-[(3S,5R)-3,5-dibenzyl-2-oxopyrrolidin-1-yl]-4-hydroxy-N-[(1S,2R)-2-hydroxy-2,3-dihydro-1H-inden-1-yl]pentanamide] came in with a Ki of 0.07 nM. The molecule also showed an IC50 in experiment [2] of 360 nM.
The corresponding values for `O=C(N[C@H]1c2ccccc2C[C@H]1O)[C@H](Cc1ccc(OCCN2CCOCC2)cc1)C[C@H](O)CN1C(=O)[C@@H](Cc2ccccc2)C[C@@H]1Cc1ccccc1` [(2R,4S)-5-[(3S,5R)-3,5-dibenzyl-2-oxopyrrolidin-1-yl]-4-hydroxy-N-[(1S,2R)-2-hydroxy-2,3-dihydro-1H-inden-1-yl]-2-({4-[2-(morpholin-4-yl)ethoxy]phenyl}methyl)pentanamide] are 0.14 nM and 83 nM.
